Data on one substance can be found in patent publication US20170003277A1 (priority 2015, published 2017).

Test [1] has as its system mouse splenocytes, THP-1 human monocyte cell line, PBMCs from MS patients. The settings on record: prior study (ACTRIMS-ECTRIMS 2014, P282); cited from earlier work.
The test system of another test is mouse splenocytes. Description: Microarray gene expression of splenocytes from Copaxone- or Polimunol-immunized mice activated ex vivo with Copaxone or Polimunol. In kind it is cell-based. Here is the method: All experimental procedures conformed to accepted ethical standards for use of animals in research and were in accordance with Committee for the Care and Use of Experimental Animals guidelines and approved by the Teva Institutional Animal Care and Use Committee. For these experiments, 8- to 12-week-old female (Balb/c X SJL) F1 mice (Janvier, France) were purchased. Mice were kept at 21±3° C.; the relative humidity was 30-70%, the light/dark cycle was 12/12 h. Animals were maintained on a standard rodent pellet diet and sterile filtered tap water available ad libitum.
To stimulate induction of GA-reactive T cells, twelve mice were injected with 100 μL of a 2.5 mg/mL solution of GA reference standard (GA-RS) in phosphate-buffered saline (250 μg GARS per mouse). GA-RS (Teva) is a selected GA drug substance batch defined as the standard batch and used as a reference in quality control release tests of all Copaxone® batches. Another group of twelve mice were injected with 100 μL of a 2.5 mg/mL solution of Polimunol in phosphate-buffered saline (250 μg Polimunol per mouse). Polimunol is a proposed generic manufactured a company other than Teva. […] A single cell suspension was prepared. After red blood cells lysis, splenocytes from the same immunization group were pulled and resuspended to a final concentration of 10×10^6 cells/mL in defined cell culture media (DCCM1) (Biological Industries, Beit Haemek, Israel) (96.7% v/v) enriched with L-glutamine 2 mM (1% v/v), MEM Non-Essential Amino Acids 2 mM (1% v/v), sodium pyruvate 1 mM (1% v/v), antibiotic/antimycotic solution (0.2% v/v) and 2-mercaptoethanol 50 mM (0.1% v/v).
Splenocytes were treated with activator samples diluted in medium (125 μL per well of 80 μg/mL solutions, final concentration in the well: 40 μg/mL) of: i) 3 different batches of GA drug product manufactured by Teva ii) one batch of proposed generic (Polimunol). Polimunol is a product marketed as generic GA and manufactured by a company other than Teva (i.e. Synthon). […] Splenocytes (125 μL 10×10^6 SPL cell/mL suspension) were added to the activator solutions. Each activator sample was loaded in two different plates. One for the cells from mice immunized with GA and one for cells from mice immunized with proposed generic. Plates were incubated for 24 h at 37° C. Cells were collected from the wells and were centrifuged at 300 g for 5 minutes. Supernatants were aspirated and cell pellets were resuspended in RLT buffer (from RNeasy mini kit of Qiagen, Cat #74106) for cell lysis. The cell lysates were centrifuged and supernatants were collected and frozen at −70° C. Samples were sent for further processing.
For additional detail on experimental methods used in mouse studies, please refer to publications [Bakshi et al; Towfic et al]. Note that in this study, mice were immunized with either Copaxone® or Polimunol, and subsequently splenocytes were isolated and treated ex vivo with Copaxone® or Polimunol. RNA was extracted and expression profiled across the entire genome using the Affymetrix Mouse Genome 430 2 chip. Three lots of Copaxone®, and one lot of Polimunol were comparatively tested in six replicates each.
Outlier samples were identified using the R package ArrayQCMetrics and excluded from further data processing steps. A sample was considered an outlier if it failed more than half of the included tests either before or after RMA normalization. Data were RMA normalized using the Affy R package.
Correction for batch variation was performed using ComBat as described above (THP-1 methods). Date of microarray experiment was used as batch, and the combination of treatment and immunization was used as covariate.
Differentially expressed probesets were identified across conditions using linear models for microarray data (LIMMA; Smyth, G. K. (2004)), a standard R Bioconductor package. Linear models and empirical Bayes methods for assessing differential expression in microarray experiments. […]

As to glatiramer acetate [Copaxone®], in test [1], the “Genes modulated by Copaxone in both mouse splenocyte and THP-1 systems” value is 1,378; the “Genes modulated by Copaxone only in THP-1 cells” value is on record as 2,121; the “Genes modulated by Copaxone only in splenocytes” value was 6,691. Moreover, in the test with mouse splenocytes (Copaxone immunization, adj p<3.4e-23), the Foxp3 expression entry was “upregulated”. Besides, the Gpr83 expression result in the test on mouse splenocytes (Copaxone immunization, two probesets, adj p<4.2e-33 and 9.0e-31) was “upregulated”. In the test with mouse splenocytes (Copaxone-immunized mice), the “Probesets downregulated by Copaxone relative to medium” value is given as 8,305; the “Probesets downregulated by Copaxone relative to medium, |FC|≧2” value came to 485; the “Probesets significantly modulated by Copaxone relative to medium” value is 16,647; the “Probesets upregulated by Copaxone relative to medium” value is reported as 8,342. The “Probesets upregulated by Copaxone relative to medium, |FC|≧2” value in the test on mouse splenocytes (Copaxone-immunized mice) worked out at 411.
